The values below come from a melting point compilation (Tetko et al.; mined from patent text by program, amines drawn as free bases though some values may be those of a salt).

Where only a bound is given, the exact number is not on record here.

Take `COc1ccccc1C1=C(NC(=O)Nc2ccc(N(C)C)cc2)SCc2ccccc21`: the melting point was in the range of 128 to 130 °C.

The compound `O=C(N[C@H]1CCCNC1=O)c1ccc(F)c(F)c1` registered a melting point of 202 to 204 °C.

Consider `O=C1OC(=O)C(c2ccc(C(=O)O)cc2)=C1c1ccccc1`, for which the melting point was in the range of 247 to 249 °C.

For `Cc1cc(C(=O)NCc2ccc(Br)cc2F)c(O)cc1F`, the melting point was 149 to 150 °C.

`CC(C)NC(=O)C(Cl)Cl`: the melting point fell in the range of 45 to 48 °C.

The compound `N#CC1=C(C2CC2)Nc2n[nH]cc2C1c1cccc(Cl)c1Cl` (configuration not stated) returned a melting point of more than 250 °C.

`O=C(O)C=Cc1cc(=O)c(OCc2ccccc2)c[nH]1` showed a melting point of 236 °C.

In turn, `CCCCCN1CC[C@@H](c2ccccc2Br)[C@H](CO)C1` (racemic) displayed a melting point of 119 to 120 °C.

Regarding `Oc1cccc(CN2CCCCC2c2nc(-c3ccccc3)c(-c3ccccc3)o2)c1` (configuration not stated), the melting point is 205 to 208 °C.

Consider `Cc1ccn2c(C(=O)O)c(C)nc2c1`, for which the melting point was 180 to 183 °C.

Consider `COC(=O)c1ccc(OCCNC(=O)C2Cc3ccccc3N2S(=O)(=O)c2ccc(-c3ccc(F)cc3F)cc2)cc1F` (configuration not stated), for which the melting point lay within 65 to 68 °C.

`COC(=O)CCC(=O)c1cccc(Cl)c1O` displayed a melting point of 60 to 62 °C.

`CCOC(=O)CN1c2ccccc2Oc2ccccc21` displayed a melting point of 96 to 97 °C.

With `CN1CCN(CCC(=O)N2c3ccccc3C(=O)Nc3cccnc32)CC1`, the melting point was 232 to 233 °C.

On to `Cn1c(=O)c(C(=O)NC2CCCCC2)c(O)c2cc(F)ccc21`, for which the melting point was 193 °C.

In turn, `O=C(NC1=NN(c2cccc(Cl)c2)CC1)C(F)(F)F` came in with a melting point of 143 to 144 °C.

Take `N#Cc1cc(N)ccc1N1CCCC1`: the melting point worked out at 113 °C.

In the case of `O=Cc1ccc(S(=O)(=O)CCCl)cc1Cl`, the melting point lay in the range of 117 to 119 °C.

Take `COc1cc2c(cc1OC)[C@@H]1CCCC[C@@H]1N=C2c1ccc(NC(C)=O)cc1` (racemic): the melting point was determined as 218 °C.

As to `CC1(C)COc2cc(F)c(F)cc2C(O)(c2ccccn2)C1` (configuration not stated), the melting point came out at 93 °C.

The compound `Cc1nc(NC(=O)c2ccc(C#N)cc2)sc1C(=O)NCc1ccccc1` showed a melting point of 256 to 258 °C.

`BrCC1(c2ccc3ccccc3c2)OCCO1` yielded a melting point of 64 °C.

Compound `Nc1ccc(C=Cc2ccncn2)cc1` yielded a melting point of 227 to 230 °C.

With `Sc1cc(Cl)nc2ncnn12`, the melting point is more than 300 °C.

`O=c1cc(-c2ccc(OCc3ccccc3)c(OCc3ccccc3)c2)oc2cc(OCCCCl)ccc12` yielded a melting point of 153 °C.

`Cc1cc(Br)cnc1CCCCN=C(NC#N)NCc1ccccc1`: the melting point was 140 to 141 °C.

Consider `O=[N+]([O-])c1cc(CO)cc([N+](=O)[O-])c1-c1ccc(O)cc1`, for which the melting point lay within 156 to 158 °C.

As for `Cc1cccc(Nn2c(C)c(C)[nH]c2=S)c1`, the melting point was 230 °C.

`CC(=O)OCC(=O)C1=CCC2C3CCC4=CC(=O)C=CC4(C)C3(F)C(O)CC12C` (configuration not stated) showed a melting point of 223 to 225 °C.

`CC(C)C(=O)OC1(C(=O)CO)CCC2C3CC(C)C4=CC(=O)CCC4(C)C3C(O)CC21C` (configuration not stated) registered a melting point of 191 °C.

Turning to `CCNC(=O)n1nc(Oc2ccc([N+](=O)[O-])c(C)c2)cc1C`, the melting point fell in the range of 67 to 69 °C.

Regarding `O=C(Oc1ccccn1)c1cc2cc(CCl)ccc2oc1=O`, the melting point is 125 to 129 °C.

`O=C(NC=CCc1cn(C2CC(O)C(CO)O2)c(=O)[nH]c1=O)C(F)(F)F` (configuration not stated) registered a melting point of 183 to 184 °C.

For `Cn1c(C(F)(F)F)cc(=O)n(-c2cc(OC(=O)C3CCCCC3)c(Cl)cc2F)c1=O`, the melting point lay in the range of 97 to 101 °C.

Compound `CCCCn1c(=O)n2cnnc2c2[nH]c(-c3cc(S(=O)(=O)N4CC(CN(C)C)C4)ccc3OCCC)nc21` came in with a melting point of 198 °C.

The compound `CCCc1c(OCC(O)COc2ccc3c(=O)cc(C=CC(=O)O)oc3c2CCC)ccc(C(C)=O)c1O` (configuration not stated) had a melting point of 101 to 103 °C.

Take `CN(C)CCNc1ncc(-c2ccccc2)c(C(=O)N(C)Cc2cc(C(F)(F)F)cc(C(F)(F)F)c2)n1`: the melting point lay in the range of 108 to 110 °C.

For `CCOC(=O)c1cn(Cc2ccc(-c3ccccc3-c3nnn[nH]3)cc2)c2sc(CC)c(NC(C)=O)c2c1=O`, the melting point was in the range of 163 to 166 °C.

The compound `FC(F)(F)Sc1[nH]ccc1-c1ccc(Cl)cc1` registered a melting point of 44 to 46 °C.

The compound `O=C(NCCc1cccs1)c1cc(Cl)ccc1Cl` registered a melting point of 99 to 100 °C.

In turn, `COc1cc(OC)c2c(=O)c(OCCOc3ccc(C(C)=O)cc3)c(-c3ccc(OC)c(OC)c3)oc2c1` registered a melting point of 143 to 144 °C.

Take `CC(Cl)(Cl)C(NC(=O)c1cc(F)cc(F)c1)NC(=NC#N)Nc1cccnc1` (configuration not stated): the melting point was 191 to 193 °C.

`CC(=O)C(C)(C)c1nsc2ccc(-n3c(=O)cc(C(F)(F)F)n(C)c3=O)cc12` showed a melting point of 195 to 196 °C.

In the case of `Cn1cc(C2=C(c3c4n(c5ccccc35)CCC3(CCCC3NC(=O)OC(C)(C)C)C4)C(=O)OC2=O)c2ccccc21` (configuration not stated), the melting point fell in the range of 123 to 125 °C.

Turning to `CC(C)COC(=O)N1CCC(c2ccc(COc3ccc(S(C)(=O)=O)cc3)nc2)CC1`, the melting point lay within 114 to 117 °C.

With `COc1c(C#N)c2c(c3c1OC(C)(C)C3)C(c1ccccc1)=NC(C)(C)C2`, the melting point fell in the range of 166 to 168 °C.

`Cc1csc(C)c1S(N)(=O)=O` returned a melting point of 135 °C.

`O=c1[nH]cnc(C(F)(F)F)c1Cl` registered a melting point of 191 to 192 °C.

For `Cc1ncc(CN2CCC(COCc3ccccc3)CC2)c(N)n1`, the melting point was in the range of 106 to 108 °C.

For the compound `OC1C(COC2CC2)OC(n2cnc3c(NC4CCCC4)nc(Cl)nc32)C1O` (configuration not stated), the melting point is 104 to 106 °C.

Compound `CCCCCCC(O)CCCCCCCCCCCOCC(O)CNCCO` (configuration not stated) returned a melting point of 71.8 to 72.5 °C.

As to `CCCCC/C(=C\C=C\C(=O)Oc1ccc([N+](=O)[O-])cc1)c1ccc(OC)cc1`, the melting point lay in the range of 46 to 47 °C.

For `CS(=O)(=O)N1CCN([C@@H](CNS(=O)(=O)c2ccc(OCc3cccc4ccccc34)cc2)C(=O)NO)CC1`, the melting point worked out at 148 °C.

Compound `Cc1ccc2c(c1)C(CC(=O)NO)N(c1ccccc1)S2(=O)=O` (configuration not stated) returned a melting point of 150 to 155 °C.

The compound `Cc1c(NC(=O)CC(C)(C)C)c(C)c2c(c1-c1ccncc1)OCC2c1ccc(C(C)C)cc1` (configuration not stated) had a melting point of 150 to 152 °C.

`O=c1cc(C2CCc3ccccc3C2)[nH]c2ccccc12` (racemic) came in with a melting point of more than 300 °C.

Compound `O=C(O)c1ccc(N2C(=O)C3C4C=CC(CC4)C3C2=O)cc1` (configuration not stated) registered a melting point of 269 °C.

As for `CC[C@H]1[C@H](O)C2(CC2)C(=O)N1c1ccc(C#N)c(C(F)(F)F)c1`, the melting point lay within 106 to 110 °C.

On to `CCOC(=O)c1cn(-c2nsnc2C)c2nc(Cl)c(F)cc2c1=O`, for which the melting point amounted to 192 °C.

`CCCOc1ccc(F)cc1C(=O)C=CN(C)C` yielded a melting point of 43 to 46 °C.

In the case of `Cc1ccc(OCCOc2ccc(C(=O)C(=O)O)cc2)cc1`, the melting point lay in the range of 135 to 136 °C.

In turn, `CCCc1nn(Cc2ccccc2)c(C(N)=O)c1NC(=O)c1cc(S(=O)(=O)N2CCN(C)CC2)ccc1OCC` came in with a melting point of 182 to 184 °C.

Compound `COc1ccc(-c2nc3c(C(=O)NC4CN5CCC4CC5)cccc3o2)cc1` (configuration not stated) yielded a melting point of 108 to 109 °C.

With `Cn1cc(-c2ccc(Br)cc2)c(=O)c(-c2cccc(C(=O)O)c2)c1`, the melting point fell in the range of 259 to 263 °C.

In turn, `CC(=O)Nc1ccc(Oc2c(NCc3ccco3)cc(C(=O)O)cc2S(=O)(=O)NC(C)=O)cc1` showed a melting point of 250 °C.

The compound `CC1CCN(Cc2ccc(COc3cccc4c3CN(C3CCC(=O)NC3=O)C4=O)cc2)CC1` (configuration not stated) yielded a melting point of 189 to 191 °C.

`CCOC(=O)c1c(C)nc(NN=C(C)C)c2nnn(CC)c12` yielded a melting point of 68 to 72 °C.

`COC(=O)c1cn(-c2ccc(OC(C)=O)cc2C)c(C=O)cc1=O` had a melting point of 216 to 217 °C.

Compound `Fc1cccc2c(CCCc3ccc(Cl)cc3)ccnc12` registered a melting point of 97 °C.

`CC(=O)Oc1ccc(C(CN(C(C)=O)C(C)(C)C)OC(C)=O)nc1C` (configuration not stated) came in with a melting point of 124 to 128 °C.

Regarding `O=C(/C=C/c1ccccc1Cl)/C=C/c1ccccc1Cl`, the melting point is 116 to 118 °C.

Consider `CC(=O)NC(c1ccc(F)cc1)(c1cc2c3c(c1)c(-c1cccc(Cl)c1)cc(=O)n3CC2)c1nncn1C` (configuration not stated), for which the melting point was 196 °C.

The compound `O=C1CCC(N2C(=O)c3cccc(NCc4ccco4)c3C2=O)C(=O)N1` (configuration not stated) showed a melting point of 171 to 173 °C.

In turn, `CCNCC1(C)CN(c2cc3c(cc2F)c(=O)c(C(=O)O)cn3C2CC2)C1` displayed a melting point of 221 to 226 °C.

Turning to `c1ccc(-c2ccc3c(CCN4CCCCC4)c(-c4ccccc4)[nH]c3c2)cc1`, the melting point lay within 129 to 131 °C.

For the compound `CCOC(=O)C(=O)CC(=O)c1cccc(Cl)c1Cl`, the melting point is 57 to 58 °C.

The compound `Cc1cc2c(cc1C1=NNC(=O)CC1C)NC(=O)CO2` (configuration not stated) had a melting point of 163 to 166 °C.

The compound `Cc1oc2ccc(NC(=O)c3ccccc3)nc2c1CCN(C)C` had a melting point of 119 to 120 °C.

On to `CCC(=O)OC1(C(=O)CCl)CCC2C3CCC4CC(=O)CCC4(C)C3(F)C(=O)CC21C` (configuration not stated), for which the melting point came to 168 °C.

As for `CC(C)CC1=NC=C2C=CC(=O)NC3=C2N1CC3`, the melting point lay in the range of 211 to 212 °C.

As to `NCCNc1cc(NCCO)c([N+](=O)[O-])c(NCCO)c1`, the melting point turned out to be 220 °C.

With `CCOC(=O)Cc1c([N+](=O)[O-])cc([N+](=O)[O-])c2ccccc12`, the melting point was in the range of 132 to 134 °C.

For `O=C1N(CCc2noc(C(F)(F)F)n2)c2ccccc2C12COc1cc3c(cc12)OCO3` (configuration not stated), the melting point is 45 to 48 °C.

For the compound `O=S(=O)(Nc1cccc(OCc2ccc3ccccc3n2)c1)C(F)(F)F`, the melting point is 144 to 146 °C.

For `CC(C)(C)NC(=O)N1CCN(c2ccc3ncc(Br)n3n2)CC1`, the melting point is 199 to 200 °C.

The compound `CC[C@H](C)[C@H](NC(=O)[C@@H]1CCCN1CC(=O)[C@H](Cc1ccccc1)NC(=O)OCc1ccccc1)C(=O)NCC(C)C` showed a melting point of 80 to 81 °C.

In the case of `N#Cc1ccccc1CCC(=O)c1c(O)c2cccnc2n(-c2ccccc2)c1=O`, the melting point lay within 226 to 227 °C.
